From US10556902B2 (Asceneuron SA, priority 2016, dated 2020)
Where two headings read alike, the source gives them in different places.

Molecular target: His-Tagged hOGA (human O-GlcNAcase) (Homo sapiens (Human), UniProt O60502)
Assay: Human O-GlcNAcase enzyme inhibition assay;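 note: reactions contained 20 nM His-tagged hOGA enzyme with 10 µM FL-GlcNAc substrate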
Format: biochemical
Details: FL-GlcNAc substrate
[1] = OGA enzyme inhibition assay, pH 6.5, activity classes defined in μM, read-out: OGA IC50
[2] = OGA IC50 (M), pH 6.5, activity classes defined in μM

His-Tagged hOGA (human O-GlcNAcase), sequence (O60502 whole entry): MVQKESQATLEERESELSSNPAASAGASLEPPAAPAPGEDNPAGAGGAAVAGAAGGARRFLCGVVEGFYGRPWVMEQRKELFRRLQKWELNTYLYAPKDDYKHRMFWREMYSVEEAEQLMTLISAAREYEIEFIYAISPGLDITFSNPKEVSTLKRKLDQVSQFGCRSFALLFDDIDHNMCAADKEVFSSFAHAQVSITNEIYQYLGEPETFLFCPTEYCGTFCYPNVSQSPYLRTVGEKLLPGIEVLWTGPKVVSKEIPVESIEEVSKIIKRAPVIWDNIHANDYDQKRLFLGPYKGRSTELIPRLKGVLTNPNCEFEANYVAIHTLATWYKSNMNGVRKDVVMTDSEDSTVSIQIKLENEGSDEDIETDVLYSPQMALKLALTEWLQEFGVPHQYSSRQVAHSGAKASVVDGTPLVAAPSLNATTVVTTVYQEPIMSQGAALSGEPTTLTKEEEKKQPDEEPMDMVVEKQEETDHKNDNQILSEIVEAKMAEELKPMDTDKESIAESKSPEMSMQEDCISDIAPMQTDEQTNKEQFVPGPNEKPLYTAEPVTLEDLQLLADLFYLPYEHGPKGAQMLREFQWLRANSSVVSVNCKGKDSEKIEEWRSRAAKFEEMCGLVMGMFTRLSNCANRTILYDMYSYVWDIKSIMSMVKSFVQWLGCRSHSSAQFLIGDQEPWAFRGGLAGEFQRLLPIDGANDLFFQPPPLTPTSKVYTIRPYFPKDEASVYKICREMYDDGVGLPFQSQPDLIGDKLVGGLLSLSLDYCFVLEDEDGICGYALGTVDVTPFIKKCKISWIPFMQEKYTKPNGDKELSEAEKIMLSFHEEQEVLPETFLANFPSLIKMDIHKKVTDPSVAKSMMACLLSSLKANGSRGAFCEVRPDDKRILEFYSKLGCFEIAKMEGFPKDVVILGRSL
Protocol: Then, 20 nM of His-Tagged hOGA and 10 μM of FL-GlcNAc (Fluorescein mono-beta-D-(2-deoxy-2-N-acetyl) glucopyranoside; Marker Gene Technologies Inc, M1485) were added to the 384-well plate for a final volume of 20 μl.

Compound | IC50 [1] [µM] | IC50 [2] [µM]
CC(c1ccc2nccnc2c1)N1CCN(c2nnc(CN)s2)CC1 (racemic) [Example 126, (5-(4-(1-(quinoxalin-6-yl)ethyl)piperazin-1-yl)-1,3,4-thiadiazol-2-yl)methanamine] | 0.2 to 1 | 
CC(c1ccc2c(c1)OCC2)N1CCN(c2nc3c(s2)CNCC3)CC1 (single isomer, unassigned) [Example 17] | < 0.05 | 
CC(c1ccc2nccnc2c1)N1CCN(c2ccc(=O)[nH]n2)CC1 (single isomer, unassigned) [Example 38, (S)-6-(4-(1-(quinoxalin-6-yl)ethyl)piperazin-1-yl)pyridazin-3(2H)-one or (R)-6-(4-(1-(quinoxalin-6-yl)ethyl)piperazin-1-yl)pyridazin-3(2H)-one] | 0.05 to 0.2 | 
CC(=O)Nc1nnc(N2CCN(C(C)c3ccc4c(c3)OCC4)CC2)s1 (single isomer, unassigned) [Example 108] | 1 to 10 | 
CC(=O)Nc1nnc(N2CCN(C(C)c3ccc4c(c3)OCC4)CC2)s1 (single isomer, unassigned) [Example 109] | < 0.05 | 
CC(c1ccc2nccnc2c1)N1CCC(n2cc(C(F)(F)F)cn2)CC1 (stereo not drawn) [Example 31] |  | 1 to 10
CC(c1ccc2nccnc2c1)N1CCN(c2ccc(=O)[nH]n2)CC1 (stereo not drawn) [Example 39] |  | 0.05 to 0.2
C[C@@H](c1cnc2cccnc2c1)N1CCN(c2ncc(C(F)(F)F)cn2)CC1 [Example 221] | 0.2 to 1 | 
CC(=O)Nc1nnc(N2CCN([C@@H](C)c3cnc4cccnc4c3)CC2)s1 [Example 222] | 0.05 to 0.2 | 
